# Columns and labels:
# rat mGluR5 receptor = target: T1, rat mGluR5 receptor (Rattus norvegicus, UniProt P31424); assay: mGluR5 assay on HEK-expressing rat mGluR5 (fluorescent cell based Ca2+ mobilization assay); conditions: HEK-293 cells stably expressing rat mGluR5; no co-addition of glutamate; mean of at least three independent experiments in duplicate; read-out: Ca++ Flux (mean EC50)
# T1 construct: expressed in transfected cells
# Experimental: Positive functional expression of HEK-293 cells stably expressing rat mGluR5 receptor was determined by measuring intracellular Ca^2+ changes using a Fluorometric Imaging Plate Reader (FLIPR, Molecular Devices, Sunnyvale, Calif.) in response to glutamate or selective known mGluR5 agonists and antagonists. Rat mGluR5 RT-PCR products in HEK-293 cells were sequenced and found 100% identical to rat mGluR5 Genbank reference sequence (NM_017012). HEK-293 cells expressing rmGluR5 were maintained in media containing DMEM, dialyzed Fetal Bovine Serum (10%), Glutamax™ (2 mM), Penicillin (100 units/ml), Streptomycin (100 μg/ml), Geneticin (100 μg/ml) and Hygromycin-B (40 μg/ml) at 37° C./5% CO2.
# After one day of incubation, cells were washed with assay buffer containing: 142 mM NaCl, 6 mM KCl, 1 mM Mg2SO4, 1 mM CaCl2, 20 mM HEPES, 1 g/L glucose, 0.125 mM sulfinpyrazone, pH 7.4. After 60 min of loading with 4 uM Fluo-4 (TefLabs, Austin, Tex.), the cells were washed three times with 50 μl of PBS Buffer and resuspended in […] of assay Buffer. The plates were then transferred to a Fluorometric Imaging Plate Reader (FLIPR, Molecular Devices, Sunnyvale, Calif.) for the assessment of intracellular calcium flux. After monitoring the baseline fluorescence for 10 seconds, increasing concentrations of representative compound (from 0.01 to 60 μM) of the present invention diluted in Assay Buffer (15 μl of 4× dilutions) was added to the cell. The final DMSO concentration in the assay was 0.3%. In each experiment, fluorescence was then monitored as a function of time for 3 minutes and the data analyzed using Microsoft Excel and GraphPad Prism. Each data point was also measured two times.
# Under these experimental conditions, this HEK-rat mGluR5 cell line is able to directly detect positive allosteric modulators without the need of co-addition of glutamate or mGluR5 agonist.
# The concentration-response curves of representative compounds of the present invention were generated using the Prism GraphPad software (Graph Pad Inc, San Diego, USA). The curves were fitted to a four-parameter logistic equation:
# (Y=Bottom+(Top-Bottom)/(1+10̂((Log EC50−X)*Hill Slope)
# allowing determination of EC50 values.
# The Table 1 below represents the mean EC50 obtained from at least three independent experiments of selected molecules performed in duplicate.
# mGluR5 = target: T2, mGluR5 (Rattus norvegicus, UniProt P31424); assay: mGluR5 binding assay ([3H]-MPEP, rat brain membranes); conditions: 3 nM [3H]-MPEP, rat cortical membranes, 1 h at 4° C.; read-out: IC50, inhibition of [3H]-MPEP binding
# T2 construct: positive allosteric modulators of mGluR5 receptors in native preparations; endogenous in cells; host or cells: primary cortical astrocytes from Sprague-Dawley rat embryos (E16-19)
# T2 sequence (P31424 21-1203): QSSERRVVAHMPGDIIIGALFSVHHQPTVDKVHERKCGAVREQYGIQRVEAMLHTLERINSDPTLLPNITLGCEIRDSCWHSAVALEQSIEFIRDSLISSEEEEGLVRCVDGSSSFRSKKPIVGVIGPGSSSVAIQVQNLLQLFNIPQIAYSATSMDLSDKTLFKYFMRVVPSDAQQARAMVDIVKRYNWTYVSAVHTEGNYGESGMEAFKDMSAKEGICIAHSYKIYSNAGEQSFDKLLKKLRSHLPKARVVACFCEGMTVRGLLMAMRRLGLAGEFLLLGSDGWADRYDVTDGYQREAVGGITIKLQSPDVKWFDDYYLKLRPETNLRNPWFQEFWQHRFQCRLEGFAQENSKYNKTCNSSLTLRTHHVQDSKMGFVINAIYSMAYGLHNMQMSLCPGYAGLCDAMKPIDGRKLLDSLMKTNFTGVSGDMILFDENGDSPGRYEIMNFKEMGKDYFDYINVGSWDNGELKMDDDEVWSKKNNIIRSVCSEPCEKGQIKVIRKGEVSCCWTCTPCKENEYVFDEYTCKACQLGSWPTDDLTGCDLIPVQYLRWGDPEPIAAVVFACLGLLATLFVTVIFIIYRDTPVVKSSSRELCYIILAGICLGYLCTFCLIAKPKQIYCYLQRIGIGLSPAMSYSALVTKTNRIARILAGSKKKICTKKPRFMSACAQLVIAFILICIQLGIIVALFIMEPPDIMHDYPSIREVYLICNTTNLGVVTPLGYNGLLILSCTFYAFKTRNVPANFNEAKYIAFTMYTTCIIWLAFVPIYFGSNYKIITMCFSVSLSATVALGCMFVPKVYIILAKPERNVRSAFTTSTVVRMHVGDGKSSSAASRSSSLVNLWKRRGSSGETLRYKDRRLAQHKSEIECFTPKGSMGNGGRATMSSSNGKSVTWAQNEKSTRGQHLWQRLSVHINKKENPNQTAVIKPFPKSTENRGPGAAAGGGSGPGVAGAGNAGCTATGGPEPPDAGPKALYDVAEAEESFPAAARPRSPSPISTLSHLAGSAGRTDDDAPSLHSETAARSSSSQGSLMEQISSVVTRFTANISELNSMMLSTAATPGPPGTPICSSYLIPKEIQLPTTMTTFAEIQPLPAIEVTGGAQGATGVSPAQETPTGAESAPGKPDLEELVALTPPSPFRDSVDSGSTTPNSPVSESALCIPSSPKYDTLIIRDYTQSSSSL
# Text: Activity of compounds of the invention was examined following a radioligand binding technique using whole rat brain and tritiated 2-methyl-6-(phenylethynyl)-pyridine ([^3H]-MPEP) as a ligand following similar methods than those described in Gasparini et al. (2002) Bioorg. Med. Chem. Lett. 12:407-409 and in Anderson et al. (2002) J. Pharmacol. Exp. Ther. 303 (3) 1044-1051.
# Cortices were dissected out from brains of 200-300 g Sprague-Dawley rats (Charles River Laboratories, L'Arbresle, France). Tissues were homogenized in 10 volumes (vol/wt) of ice-cold 50 mM Hepes-NaOH (pH 7.4) using a Polytron disrupter (Kinematica A G, Luzern, Switzerland) and centrifuged for 30 min at 40,000 g. (4° C.). […] Protein concentration was determined by the Bradford method (Bio-Rad protein assay, Reinach, Switzerland) with bovine serum albumin as standard.
# Membranes were thawed and resuspended in binding buffer containing 20 mM HEPES-NaOH, 3 mM MgCl2, 3 mM CaCl2, 100 mM NaCl, pH 7.4. […] Radioactivity was determined by liquid scintillation spectrometry using a 96-well plate reader (TopCount, Perkin-Elmer, Downers Grove, USA).
# The inhibition curves were generated using the Prism GraphPad program (Graph Pad Software Inc, San Diego, USA). […] The mean of IC50 obtained from at least three independent experiments of selected molecules performed in duplicate were calculated.
# Male C57BL6/j mice = assay: Amphetamine model of schizophrenia (amphetamine-induced locomotor activity); assay type: in vivo; conditions: 30 mg/kg ip, 120 min before amphetamine 3.0 mg/kg s.c., first 30 minutes of a 60 minute session
# Text: Amphetamine-induced increases in locomotor ambulation are well known and are widely used as a model of the positive symptoms of schizophrenia. This model is based on evidence that amphetamine increases motor behaviors and can induce a psychotic state in humans (Yui et al. (2000) Ann. N.Y. Acad. Sci. 914:1-12). Further, it is well known that amphetamine-induced increases in locomotor activity are blocked by antipsychotics drugs that are effective in the treatment of schizophrenia (Arnt (1995) Eur. J. Pharmacol. 283:55-62).
# Subjects: The present studies were performed in accordance with the animal care and use policies of Addex Pharmaceuticals and the laws and directives of Switzerland governing the care and use of animals. Male C57BL6/j mice (20-30 g) 7 weeks of age at the time of delivery were group housed in a temperature and humidity controlled facility on a 12 hour light/dark cycle for at least 7 days before use. Mice had access to food and water ad libitum except during locomotor activity experiments.
# Assessment of locomotor (ambulatory) activity: The effects of compounds on amphetamine-induced locomotor activation in mice were tested. […] Locomotor activity (ambulations) was monitored by a videotracking system (VideoTrack, Viewpoint, Champagne au Mont d'Or, France) that recorded the ambulatory movements of mice. […] On test days, test compounds (10, 30, 50 or 100 mg/kg i.p. (intraperitoneal)) or vehicle were administered 120 minutes before amphetamine (3.0 mg/kg s.c.) or saline injection: Mice were placed into the locomotor boxes immediately after amphetamine or saline vehicle injection and their locomotor activity, defined as the distance traveled in centimeters (cm), was measured for 60 minutes.
# Compound administration: The test compound was dissolved in a 5% DMSO/20% Tween 80/75% saline vehicle and administered in a volume of 10 ml/kg. […] D-amphetamine sulfate (Amino A G, Neuenhof, Switzerland) was dissolved in saline and administered at a dose of 3.0 mg/kg s.c. (expressed as the base) in a volume of 10 ml/kg. […]
# T1 sequence (P31424 21-1171 isoform P31424-2 limits assumed): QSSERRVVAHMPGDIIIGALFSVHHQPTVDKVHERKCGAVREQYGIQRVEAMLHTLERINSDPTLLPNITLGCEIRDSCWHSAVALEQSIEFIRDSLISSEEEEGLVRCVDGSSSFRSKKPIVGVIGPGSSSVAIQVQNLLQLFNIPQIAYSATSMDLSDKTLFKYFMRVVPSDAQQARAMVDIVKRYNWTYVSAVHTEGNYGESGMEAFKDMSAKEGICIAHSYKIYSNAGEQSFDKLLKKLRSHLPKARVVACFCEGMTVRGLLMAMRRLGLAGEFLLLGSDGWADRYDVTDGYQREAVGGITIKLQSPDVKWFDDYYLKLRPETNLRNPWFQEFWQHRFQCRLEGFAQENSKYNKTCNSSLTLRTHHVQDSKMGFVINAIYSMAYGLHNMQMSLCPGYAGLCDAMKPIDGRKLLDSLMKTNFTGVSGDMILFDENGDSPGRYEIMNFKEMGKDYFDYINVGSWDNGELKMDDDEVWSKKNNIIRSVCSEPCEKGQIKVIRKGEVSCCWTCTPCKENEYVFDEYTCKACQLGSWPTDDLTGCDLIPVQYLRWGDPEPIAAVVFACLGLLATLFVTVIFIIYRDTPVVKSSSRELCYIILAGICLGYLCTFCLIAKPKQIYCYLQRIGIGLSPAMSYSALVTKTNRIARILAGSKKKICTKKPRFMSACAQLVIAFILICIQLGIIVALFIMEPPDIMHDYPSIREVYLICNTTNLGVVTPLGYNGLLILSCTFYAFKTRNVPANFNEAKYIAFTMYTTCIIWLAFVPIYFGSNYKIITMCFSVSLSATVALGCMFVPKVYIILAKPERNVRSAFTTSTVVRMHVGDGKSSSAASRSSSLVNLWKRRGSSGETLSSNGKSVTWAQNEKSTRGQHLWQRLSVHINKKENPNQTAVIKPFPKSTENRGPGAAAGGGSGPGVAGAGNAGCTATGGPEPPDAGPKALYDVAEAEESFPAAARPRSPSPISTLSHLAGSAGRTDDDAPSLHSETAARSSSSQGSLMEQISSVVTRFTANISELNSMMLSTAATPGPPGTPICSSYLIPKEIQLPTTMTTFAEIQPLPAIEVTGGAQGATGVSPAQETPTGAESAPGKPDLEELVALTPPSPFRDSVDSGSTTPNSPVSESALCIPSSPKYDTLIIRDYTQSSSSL
smiles,measurement,setting,value
"O=C(c1ccc(F)cc1)N1CCC[C@H](c2noc(-c3ccc(F)cc3)n2)C1 [Example 1, (4-Fluoro-phenyl)-{(S)-3-[5-(4-fluoro-phenyl)-[1,2,4]oxadiazol-3-yl]-piperidin-1-yl}-methanone]",EC50,rat mGluR5 receptor,< 1 µM
same,IC50,mGluR5,< 30 µM
same,increase in locomotor activity induced by amphetamine,Male C57BL6/j mice,significantly attenuated
same,increase in locomotor activity induced by amphetamine,Male C57BL6/j mice; listed as compound # 1,significantly attenuated
same,increase in locomotor activity induced by amphetamine,Male C57BL6/j mice; listed as example #1,significantly attenuate
same,melting point,,157 to 160 °C
